Data: article PMC6581923 (Journal of Molecular Neuroscience, 2018)
“Also recorded” adds a separate entry of the source.

What was measured:
Format in all cases: in vivo, rat (male)
[1] = system: retina (BCCAO-induced retinopathy); test: Number of cells in retinal nuclear layers and GCL after BCCAO, eye drops; details: eye drops 1 μg/drop, twice a day, five days, vs BCCAO-induced degenerated retinas, 14 days
Procedure: (§1) Adult male rat litters were housed in the animal facility in individual cages in a 12 h light-dark cycle with food and water ad libitum. Animal housing, care and application of experimental procedures were in accordance with institutional guidelines under approved protocols (No: BA02/2000–26/2017, University of Pecs). Under isoflurane anesthesia, common carotid arteries were exposed on both sides through a midline incision and then ligated with a 3–0 filament. A group of animals (sham group) underwent all steps of the operating procedure except ligation of the carotid arteries. Immediately following the operation, the right eye of the animals was treated with derivatives of PACAP (PACAP-TAT /n = 17/ or VIP-TAT /n = 17/) eye drops (1 μg/drop). Dose and schedule of the eye drop treatments were based on our previous experiments (Werling et al. [2016]). In the experiment for histological analysis, the different derivatives were dissolved in benzalkonium solution for ophthalmic use (solutio ophthalmica cum benzalkonio (SOCB)). The left eye, serving as a control, was treated with vehicle containing neither PACAP-TAT nor VIP-TAT. Animals were treated for five consecutive days, twice a day with one drop of drug, under brief isoflurane anesthesia (max. 5 min).
(§2) Fourteen days after the operation, rats (n = 10 SHAM and n = 24 BCCAO) were killed with anesthetic and the eyes were processed for histology. The eyes were removed and the retinas were solved in phosphate buffered saline (PBS), fixed in 4% paraformaldehyde dissolved in 0.1 M phosphate buffer (PB) (Sigma, Budapest, Hungary) and embedded in Durcupan ACM resin (Sigma, Budapest, Hungary). Retinas were cut at 2 μm and stained with toluidine blue dye (Sigma, Hungary). Sections were mounted in DPX medium (Sigma, Hungary) and photographs were taken with a digital CCD camera using the Spot program. Central retinal areas within 1 mm from the optic nerve were used (n = 5 measurements from one tissue block). The following parameters were measured: (i) cross-section of the retina from the outer limiting membrane (OLM) to the inner limiting membrane (ILM), (ii) the width of individual retinal layers (outer nuclear layer [ONL], outer plexiform layer [OPL], inner nuclear layer [INL], inner plexiform layer [IPL]), (iii) the number of cells/100 μm section length in the GCL, and the (iv) number of cells/[…]. Results are presented as mean ± SEM. Statistical comparisons were made using the two-way ANOVA test followed by Tukey’s post hoc analysis.
(§3) Fig. 5 Quantification of the number of cells/100 μm GCL length (a), the number of cells/500 μm^2 ONL (b) and INL (c) areas in SHAM+SOCB, in SHAM+PACAP-TAT, in BCCAO+SOCB, and in BCCAO+PACAP-TAT animals. Statistical significance (*p < 0.05 vs. SHAM+SOCB retinas, #p < 0.05 vs. BCCAO+SOCB retinas) was calculated by two-way ANOVA followed by Bonferroni’s post hoc test
as §3, with “Fig. 7” for “Fig. 5”, “in SHAM+VIP-TAT,” for “in SHAM+PACAP-TAT,”, “in BCCAO+VIP-TAT” for “in BCCAO+PACAP-TAT”

[2] = Efficiency of Traversing Eye to Retina (EtE) of FITC labeled peptides given in eye drops
Procedure: In order to trace the drugs, peptides were labeled with fluorescein isothiocyanate (FITC) using a FITC Protein Labeling Kit from ChangRu Biotech Ltd. (Guangzhou, China) according to the manufacturer’s protocol. After the labeling reaction, gel filtration was used to remove the free FITC. In order to determine the amount of the residual free FITC, the peptides were submitted to ultrafiltration using Amicon Ultra – 0.5 mL (Millipore, USA) with a molecular sieve of 2000 Da. After centrifugation (1000×g, 10 min) the peptide was subjected to fluorescence measurements performed with the multi-wavelength scanner Victor 3 (GE, USA) at the excitation of 495 nm and the emission of 520 nm. Protein concentrations were determined using the K4000 Bradford Protein Quantification Kit (Innovative, Guangzhou, China). The labeling efficiency was calculated using the following formula: label efficiency (LE) = fluorescence value (FV)/peptide mass (mol) (PM), representing the fluorescence intensity (AU) per mol of peptide (mol).
Male rats with body weight from 160 to 180 g were purchased from the Medical and Experimental Animal Center (Guangdong, China). Rats were randomly assigned to one of the experimental groups (7 rats per group) and subjected to eye drops with FITC labeled peptides (100 nmol/kg) and PBS as control. Rats were sacrificed by anesthesia 2 h after the eye drop administration and the retina was separated, weighed, washed three times with PBS and divided into two parts. One part was prepared on the glass slide with glycerin and subjected to fluorescence microscopic observation of FITC with 495 nm excitation/520 nm emission. All images, focused on the left upper regions of the retina, were taken with 500 ms exposure time. The other part of the retina was subjected to grinding and ultrasonication in PBS at a concentration of 100 mg weight tissue per milliliter of PBS. The supernatant was collected by centrifugation and the fluorescence intensity in the supernatant (100 uL) was determined. The valid fluorescence intensity (FI) for each sample treated with FITC labeled peptide was corrected by subtracting the fluorescence value of the sample treated with PBS, which was used as a blank background. The Efficiency of Traversing Eye to Retina (EtE) was expressed as the percentages of the FITC labeled peptide mass in the retina to the total FITC labeled peptide mass. The EtE was calculated using the following formula: EtE = tFI/LE/PW × 100% (tFI presents the fluorescence intensity of retina (arbitration unit, AU); LE presents the label efficiency of each peptide which has been determined above; PW presents the peptide mass (mole)).
Fig. 1 The efficiency of FITC labeled PACAP/PACAP-TAT (a, b) and VIP/VIP-TAT (c, d) traversing to retina given in eye drops. The retina was separated 2 h after the eye drops and submitted to the fluorescence microscopic observation of FITC fluorescence signal (A, C) and the calculation of Efficiency of Traversing Eye to Retina (EtE) (b, d). The data are means ± SEM of four experiments

[3] = system: retina (BCCAO-induced retinopathy); test: Retinal layer thickness / morphology after bilateral carotid artery occlusion (BCCAO), eye drops
Procedure: as §1, §2
(§4) Fig. 4 Quantification of retinal layers in SHAM+SOCB, in SHAM+PACAP-TAT, in BCCAO+SOCB, and in BCCAO+PACAP-TAT animals; the right eye was treated with PACAP-TAT eye drops, the left eye served as controls receiving only SOCB. Comparison of all retinal layers (a–e). […] Statistical significance (*p < 0.05 vs. SHAM+SOCB retinas, #p < 0.05 vs. BCCAO+SOCB retinas) was calculated by two-way ANOVA followed by Fischer’s post hoc test
as §4, with “6” for “4”, “SHAM+VIP-TAT,” for “SHAM+PACAP-TAT,”, “BCCAO+VIP-TAT” for “BCCAO+PACAP-TAT”, “VIP-TAT” for “PACAP-TAT”, “control” for “controls”

Compound: CC[C@H](C)[C@H](NC(=O)CNC(=O)[C@H](CC(=O)O)NC(=O)[C@H](CO)NC(=O)[C@@H](N)Cc1c[nH]cn1)C(=O)N[C@@H](Cc1ccccc1)C(=O)N[C@H](C(=O)N[C@@H](CC(=O)O)C(=O)N[C@@H](CO)C(=O)N[C@@H](Cc1ccc(O)cc1)C(=O)N[C@@H](CO)C(=O)N[C@@H](CCCNC(=N)N)C(=O)N[C@@H](Cc1ccc(O)cc1)C(=O)N[C@@H](CCCNC(=N)N)C(=O)N[C@@H](CCCCN)C(=O)N[C@@H](CCC(N)=O)C(=O)N[C@@H](CCSC)C(=O)N[C@@H](C)C(=O)N[C@H](C(=O)N[C@@H](CCCCN)C(=O)N[C@@H](CCCCN)C(=O)N[C@@H](Cc1ccc(O)cc1)C(=O)N[C@@H](CC(C)C)C(=O)N[C@@H](C)C(=O)N[C@@H](C)C(=O)N[C@H](C(=O)N[C@@H](CC(C)C)C(=O)NCC(=O)N[C@@H](CCCCN)C(=O)N[C@@H](CCCNC(=N)N)C(=O)N[C@@H](Cc1ccc(O)cc1)C(=O)N[C@@H](CCCCN)C(=O)N[C@@H](CCC(N)=O)C(=O)N[C@@H](CCCNC(=N)N)C(=O)N[C@H](C(=O)N[C@@H](CCCCN)C(=O)N[C@@H](CC(N)=O)C(=O)N[C@@H](CCCCN)C(=O)NCC(=O)N[C@@H](CCCNC(=N)N)C(=O)N[C@@H](CCCCN)C(=O)N[C@@H](CCCCN)C(=O)N[C@@H](CCCNC(=N)N)C(=O)N[C@@H](CCCNC(=N)N)C(=O)N[C@@H](CCC(N)=O)C(=O)N[C@@H](CCCNC(=N)N)C(=O)N[C@@H](CCCNC(=N)N)C(=O)N[C@@H](CCCNC(=N)N)C(=O)N1CCC[C@H]1C(=O)N[C@@H](CCC(N)=O)C(=O)O)C(C)C)C(C)C)C(C)C)[C@@H](C)O [PACAP-TAT]
- Number of cells in the GCL/100 μm after BCCAO [1]: significantly higher compared to the BCCAO-induced degenerated retinas
- Number of cells in the INL/500 μm2 after BCCAO [1]: significantly higher compared to the BCCAO-induced degenerated retinas
- Number of cells in the ONL/500 μm2 after BCCAO [1]: significantly higher compared to the BCCAO-induced degenerated retinas
- Efficiency of Traversing Eye to Retina (EtE) ([2]; FITC labeled peptides, eye drops 100 nmol/kg, retina separated 2 h after, fluorescence 495 nm excitation/520 nm emission, % of FITC labeled peptide mass in retina to total, means ± SEM of four experiments (7 rats per group)): 3.66 ± 0.67%
- EtE relative to the untagged peptide ([2]; PACAP-TAT/VIP-TAT vs PACAP/VIP, respectively, eye drops 100 nmol/kg, 2 h): about three-fold that of PACAP/VIP
- FITC fluorescence density per area unit in the retina ([2]; fluorescence microscopy of retina 2 h after eye drops of FITC labeled peptides (100 nmol/kg), vs PACAP/VIP): much higher than in retinas treated with eye drops of PACAP/VIP
- OPL preservation after BCCAO ([3]; BCCAO + eye drops, OPL almost disappeared in several BCCAO-induced degenerated retinas): preserved
- Retinal degeneration in light microphotographs after BCCAO ([3]; BCCAO + eye drops, toluidine blue sections, 14 days, severe degeneration in BCCAO+SOCB): only mild degeneration
- Retinoprotective efficacy of eye drops, overall / compared with untagged peptide ([3]; BCCAO, topical eye drops in SOCB): attenuate ischemic retinal degeneration via the PAC1 receptor; also recorded: did not prove to have significantly higher retinoprotective efficacy than untagged PACAP
- Retinal layer thickness (OLM-ILM, ONL, OPL, INL, IPL) after BCCAO ([3]; BCCAO, eye drops 1 μg/drop, twice a day, five consecutive days, in SOCB, right eye, left eye SOCB control, 14 days, p < 0.05 vs. BCCAO+SOCB): significant amelioration in all retinal layers; also recorded: improved the structure of all the retinal layers
- Change of retinal thickness in sham animals ([3]; eye drops alone in sham animals, 1 μg/drop, twice a day, five consecutive days, in SOCB, histology 14 days after operation): did not cause any changes in the retinal thickness
